Test results reported in patent US12202829B2, “Heterocyclic compound” (FIMECS, Inc., priority 2018, dated 2025).

Experiments:
[1] = target: T1, human XIAP_BIR3 domain purified protein (Homo sapiens, UniProt P98170); assay: XIAP binding inhibitory activity, HTRF method with b-Smac ligand; details: test compound 3 μM; first symbol of the cell; read-out: XIAP binding inhibition rate when the concentration of the test compound is 3 μM
T1 construct: purchased R & D
Outline: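 HTRF competition: human XIAP BIR3 and C-terminally biotinylated Smac peptide AVPIAQK, each diluted to 90 nM before addition, in HEPES pH 7.5 buffer with NaCl, BSA, Triton X-100. Eu-cryptate anti-His/streptavidin-XL665 detection after ≥4 h at room temperature; inhibition % from 665/615 ratio versus no-compound control.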

[2] = target: T2, GCN2 (Homo sapiens, UniProt Q9P2K8, S808G); assay: KINOMEscan active site-dependent competitive binding assay, GCN2; details: test compound 1 μM; DMSO = 100% Ctrl, control compound = 0% Ctrl
T2 construct: purchased Discover X (KINOMEscan service)
T2 sequence (Q9P2K8 590-1001 S808G limits assumed): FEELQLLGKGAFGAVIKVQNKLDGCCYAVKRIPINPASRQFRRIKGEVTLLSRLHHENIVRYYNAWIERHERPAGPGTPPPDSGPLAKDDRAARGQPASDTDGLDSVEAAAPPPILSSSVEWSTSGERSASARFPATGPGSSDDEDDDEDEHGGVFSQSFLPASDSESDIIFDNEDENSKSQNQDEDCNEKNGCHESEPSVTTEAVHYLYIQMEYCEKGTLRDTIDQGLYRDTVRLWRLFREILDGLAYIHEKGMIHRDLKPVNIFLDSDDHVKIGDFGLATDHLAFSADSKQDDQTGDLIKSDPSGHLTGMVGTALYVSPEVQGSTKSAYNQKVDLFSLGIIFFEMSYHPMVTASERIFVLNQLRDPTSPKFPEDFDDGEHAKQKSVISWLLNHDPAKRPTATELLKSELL
Method: (§1) Each of GSK3a/B and GCN2 binding inhibitory activity was evaluated using active site-dependent competitive assay KINOMEscan provided by Discover X (Goldstein, D. M. et al. High-throughput kinase profiling as a platform for drug discovery. Nat. Rev. Drug Discovery. 7, 391-397 (2008)). the “% Ctrl” when the concentration of the test compound is 1 μM is shown in the table below. The “% Ctrl” is calculated by the following formula. (test compound signal−positive control compound signal)/(negative control compound signal−positive control compound signal)×100 • Negative control compound=DMSO (100% Ctrl) • Positive control compound=control compound (0% Ctrl)

[3] = target: T3, GCN2 (Homo sapiens, UniProt Q9P2K8); assay: In vitro degradation activity of GCN2 in THP1 cells, western blotting; format: cell-based; details: test compound 10 μM, 24 hours, relative to DMSO control set at 100
T3 construct: endogenous in cells; host or cells: THP1 (ATCC)
T3 sequence (Q9P2K8 whole entry): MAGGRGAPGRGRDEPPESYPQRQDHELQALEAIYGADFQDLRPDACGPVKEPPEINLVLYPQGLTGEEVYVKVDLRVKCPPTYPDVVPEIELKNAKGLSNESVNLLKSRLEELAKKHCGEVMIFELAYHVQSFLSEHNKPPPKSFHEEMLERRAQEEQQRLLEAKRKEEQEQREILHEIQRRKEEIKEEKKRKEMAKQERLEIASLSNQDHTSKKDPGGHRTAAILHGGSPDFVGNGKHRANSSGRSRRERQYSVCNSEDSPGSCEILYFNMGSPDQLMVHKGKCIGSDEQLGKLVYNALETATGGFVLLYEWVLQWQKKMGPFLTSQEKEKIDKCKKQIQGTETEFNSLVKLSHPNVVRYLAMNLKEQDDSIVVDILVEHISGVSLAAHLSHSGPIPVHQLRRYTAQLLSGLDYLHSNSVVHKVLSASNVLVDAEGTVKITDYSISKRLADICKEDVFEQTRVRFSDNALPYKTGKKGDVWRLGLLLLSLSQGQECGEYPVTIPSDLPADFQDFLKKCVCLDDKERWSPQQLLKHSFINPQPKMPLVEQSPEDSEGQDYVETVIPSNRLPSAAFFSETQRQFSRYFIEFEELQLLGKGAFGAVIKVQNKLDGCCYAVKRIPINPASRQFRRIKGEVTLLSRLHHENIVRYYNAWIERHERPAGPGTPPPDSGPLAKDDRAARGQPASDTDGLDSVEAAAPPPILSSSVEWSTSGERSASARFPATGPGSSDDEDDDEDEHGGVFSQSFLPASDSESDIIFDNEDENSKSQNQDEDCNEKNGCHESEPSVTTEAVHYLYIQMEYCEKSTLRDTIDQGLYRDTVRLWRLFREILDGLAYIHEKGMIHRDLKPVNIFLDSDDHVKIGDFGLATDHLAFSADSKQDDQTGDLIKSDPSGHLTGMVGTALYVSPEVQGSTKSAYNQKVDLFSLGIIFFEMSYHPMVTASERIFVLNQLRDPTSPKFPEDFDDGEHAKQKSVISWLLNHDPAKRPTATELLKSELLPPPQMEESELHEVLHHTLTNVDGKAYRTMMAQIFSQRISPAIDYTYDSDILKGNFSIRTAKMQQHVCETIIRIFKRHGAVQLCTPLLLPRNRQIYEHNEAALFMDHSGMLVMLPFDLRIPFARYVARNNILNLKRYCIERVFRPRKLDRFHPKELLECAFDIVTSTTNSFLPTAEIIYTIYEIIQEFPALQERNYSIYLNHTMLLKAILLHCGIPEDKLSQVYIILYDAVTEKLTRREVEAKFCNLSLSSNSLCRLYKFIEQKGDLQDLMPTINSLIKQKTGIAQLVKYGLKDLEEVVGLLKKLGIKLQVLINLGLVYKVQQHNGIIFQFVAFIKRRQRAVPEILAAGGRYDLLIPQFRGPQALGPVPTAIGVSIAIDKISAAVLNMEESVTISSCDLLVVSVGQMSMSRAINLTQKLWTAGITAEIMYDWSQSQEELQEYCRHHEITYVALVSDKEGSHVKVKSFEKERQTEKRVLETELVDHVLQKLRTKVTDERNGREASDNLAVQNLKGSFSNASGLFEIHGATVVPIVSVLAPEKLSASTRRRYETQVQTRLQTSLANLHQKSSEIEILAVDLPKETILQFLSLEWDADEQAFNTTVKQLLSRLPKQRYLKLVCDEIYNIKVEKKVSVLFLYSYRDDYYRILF
Method: (§2) In vitro degradation activities of GSK3α/β and GCN2 of the example compounds were evaluated by the following method. THP1 cells were purchased from ATCC and cultured in RPMI-1640 supplemented with 10% FBS and 1% penicillin/streptomycin. THP1 cells were seeded at a density of 1×10^6 cells/well in 24-well plate and treated with DMSO control or Example 55 (1, 3, 10 μM), and then incubated for 24 hours. The cells were collected and lysed on ice for 30 minutes in RIPA buffer (Thermo Fisher #87787) containing a protease inhibitor cocktail (Sigma-Aldrich). The lysates were sonicated for 30 sec ON/30 sec OFF for ten cycles and centrifuged for 15 minutes at 15 krpm at 4° C. Protein concentrations were determined by the BCA assay (Thermo Fisher). Proteins were separated with Nu-PAGE (Thermo Fisher) and analyzed by western blotting (standard protocol) using antibodies of anti-GSK3α/β (Cell Signaling #5676), GCN2 (Cell Signaling #3302), and R-actin (Sigma #A2066) (FIG. 1). Bands (luminescent intensities) were quantified using LAS-4000 luminescent image analyzer (Fuji). The values of GSK3α/β and GCN2 were corrected by the internal control value of β-actin and analyzed relative to DMSO control set at 100. The remaining protein rate (%) are described as A≤25%, 25%<B≤50%, 50%<C≤75%, D>75% when the concentration of the test compound is 10 μM.

[4] = tested on: GSK3α/β and GCN2; assay: Ubiquitin-proteasome system dependency of degradation in THP1 cells with Epoxomicin; format: cell-based, human; details: test compound 10 μM with or without 1 μM Epoxomicin, 8 hours, FIG. 2
Method: THP1 cells were seeded at a density of 1×10^6 cells/well in 24-well plate and treated with DMSO control or Example 55 (10 μM) with or without 1 μM of Epoxomicin and incubated for 8 hours. The cells were collected and lysed on ice for 30 minutes in RIPA buffer (Thermo Fisher #87787) containing a protease inhibitor cocktail (Sigma-Aldrich). The lysates were sonicated for 30 sec ON/30 sec OFF for ten cycles and centrifuged for 15 minutes at 15 krpm at 4° C. Protein concentrations were determined by the BCA assay (Thermo Fisher). Proteins were separated with Nu-PAGE (Thermo Fisher) and analyzed by western blotting (standard protocol) using antibodies of anti-GSK3α/β Cell Signaling #5676), GCN2 (Cell Signaling #3302), and β-actin (Sigma #A2066) (FIG. 2).

[5] = target: T4, GSK3α (Homo sapiens, UniProt P49840); assay: KINOMEscan active site-dependent competitive binding assay, GSK3α; parameters: purchased Discover X (KINOMEscan service); details: test compound 1 μM; DMSO = 100% Ctrl, control compound = 0% Ctrl
T4 sequence (P49840 whole entry): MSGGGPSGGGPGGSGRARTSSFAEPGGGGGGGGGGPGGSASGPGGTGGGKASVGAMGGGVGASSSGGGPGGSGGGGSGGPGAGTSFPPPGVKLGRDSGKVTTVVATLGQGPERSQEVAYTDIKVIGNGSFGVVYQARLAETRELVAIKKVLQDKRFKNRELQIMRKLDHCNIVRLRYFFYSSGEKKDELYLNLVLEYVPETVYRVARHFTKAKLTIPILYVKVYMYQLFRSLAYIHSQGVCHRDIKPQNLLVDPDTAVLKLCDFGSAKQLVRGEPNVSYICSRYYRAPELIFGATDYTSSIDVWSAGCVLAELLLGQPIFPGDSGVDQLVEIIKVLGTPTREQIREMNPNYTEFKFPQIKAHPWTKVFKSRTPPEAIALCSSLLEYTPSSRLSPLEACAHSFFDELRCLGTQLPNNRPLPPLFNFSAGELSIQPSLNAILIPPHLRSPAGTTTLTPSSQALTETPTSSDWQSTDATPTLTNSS
Method: as §1

[6] = target: T5, GSK3β (Homo sapiens, UniProt P49841); assay: KINOMEscan active site-dependent competitive binding assay, GSK3β; parameters: purchased Discover X (KINOMEscan service); details: test compound 1 μM; DMSO = 100% Ctrl, control compound = 0% Ctrl
T5 sequence (P49841 whole entry): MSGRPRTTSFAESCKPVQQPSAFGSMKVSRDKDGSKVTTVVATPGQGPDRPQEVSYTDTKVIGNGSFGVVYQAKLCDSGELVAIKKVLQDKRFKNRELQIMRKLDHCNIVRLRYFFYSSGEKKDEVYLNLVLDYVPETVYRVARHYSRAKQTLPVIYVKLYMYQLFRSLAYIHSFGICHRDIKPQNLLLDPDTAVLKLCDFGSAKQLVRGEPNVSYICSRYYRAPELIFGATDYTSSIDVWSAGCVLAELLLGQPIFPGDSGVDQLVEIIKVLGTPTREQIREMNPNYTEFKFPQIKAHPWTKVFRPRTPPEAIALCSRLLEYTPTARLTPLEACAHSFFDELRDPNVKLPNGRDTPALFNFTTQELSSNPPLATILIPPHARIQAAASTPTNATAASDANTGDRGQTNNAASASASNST
Method: as §1

[7] = target: T4, GSK3α; assay: In vitro degradation activity of GSK3α in THP1 cells, western blotting; format: cell-based; parameters: endogenous in cells; host or cells: THP1 (ATCC); details: test compound 10 μM, 24 hours, relative to DMSO control set at 100
Method: as §2

[8] = target: T5, GSK3β; assay: In vitro degradation activity of GSK3β in THP1 cells, western blotting; format: cell-based; parameters: endogenous in cells; host or cells: THP1 (ATCC); details: test compound 10 μM, 24 hours, relative to DMSO control set at 100
Method: as §2

T1 sequence (P98170 252-356 limits assumed): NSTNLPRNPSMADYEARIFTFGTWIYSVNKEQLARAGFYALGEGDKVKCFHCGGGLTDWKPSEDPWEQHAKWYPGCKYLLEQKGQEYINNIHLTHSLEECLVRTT

- inhibition at 3 µM [1]: > 75%
- remaining binding at 1 µM [2]: 0.35%
- remaining protein rate (%) GCN2 [3]: A (A≤25%)
- remaining binding at 1 µM [5]: 39%
- remaining binding at 1 µM [6]: 11%
- remaining protein rate (%) GSK3α [7]: B (25%<B≤50%)
- remaining protein rate (%) GSK3β [8]: B (25%<B≤50%)
Compound: CN[C@@H](C)C(=O)N[C@H](C(=O)N1CCN(C(=O)c2c(C(=O)NCCOCCOCC(=O)N3CCN(c4ccc(Nc5ncc6nnn(-c7ccc(OC)c(OC)c7)c6n5)cc4)CC3)c3ccc(OC)cc3n2C)CC1)C1CCCCC1 [Example 55, 2-(4-((S)-2-Cyclohexyl-2-((S)-2-(methylamino)propanamido)acetyl)piperazine-1-carbonyl)-N-(2-(2-(2-(4-(4-((3-(3,4-dimethoxyphenyl)-3H-[1,2,3]triazolo[4,5-d]pyrimidin-5-yl)amino)phenyl)piperazin-1-yl)-2-oxoethoxy)ethoxy)ethyl)-6-methoxy-1-methyl-1H-indole-3-carboxamide]
- degradation activity of GSK3α/β and GCN2 with proteasome inhibitor Epoxomicin [4]: cancelled by the proteasome inhibitor Epoxomicin treatment
